Where “and” joins values, the source holds several entries; their conditions need not be identical. Equal values may be shown once. Inconclusive results and toxic doses are left out. Rule as the data show it: active = T/C of 150% or more; inactive = T/C below 125%.
Test system: L1210 leukemia ip in BDF1 mice, survival T/C
Assay: NCI In Vivo Anticancer Drug Screen. Data for tumor model L1210 Leukemia (intraperitoneal) in B6D2F1 (BDF1) mice
Conditions: endpoint: mean survival time, higher = longer survival
Outline: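 Each compound was tested against a transplantable tumor grown in mice. The endpoint was survival, with treated animals benchmarked against vehicle controls as a simple ratio.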

[1] = dose: 100.0 mg/kg/injection, schedule: Q01DX009 (ip), vehicle: Klucel (hydroxypropylcellulose) (HPC)
[2] = dose: 100.0 mg/kg/injection, schedule: Q04DX003 (ip), vehicle: Klucel (hydroxypropylcellulose) (HPC)
[3] = dose: 200.0 mg/kg/injection, schedule: Q01DX009 (ip), vehicle: Klucel (hydroxypropylcellulose) (HPC)
[4] = dose: 200.0 mg/kg/injection, schedule: Q04DX003 (ip), vehicle: Klucel (hydroxypropylcellulose) (HPC)
[5] = dose: 400.0 mg/kg/injection, schedule: Q01DX009 (ip), vehicle: Klucel (hydroxypropylcellulose) (HPC)
[6] = dose: 400.0 mg/kg/injection, schedule: Q04DX003 (ip), vehicle: Klucel (hydroxypropylcellulose) (HPC)
[7] = dose: 50.0 mg/kg/injection, schedule: Q01DX009 (ip), vehicle: saline with Tween-80
[8] = dose: 100.0 mg/kg/injection, schedule: Q01DX009 (ip), vehicle: saline with Tween-80
[9] = dose: 200.0 mg/kg/injection, schedule: Q01DX009 (ip), vehicle: saline with Tween-80

Measured: T/C

O=C(Nc1ccccc1F)Nc1ccc(Cl)cc1Cl
inactive: dose: 100.0 mg/kg/injection, schedule: Q01DX009 (ip), vehicle: saline 100 % of control | dose: 200.0 mg/kg/injection, schedule: Q01DX009 (ip), vehicle: saline 100 % of control | dose: 400.0 mg/kg/injection, schedule: Q01DX009 (ip), vehicle: saline 98 % of control

CC(=O)NCCNC(C)=O
inactive: dose: 50.0 mg/kg/injection, schedule: Q01DX001 (ip), vehicle: saline 102 % of control | dose: 100.0 mg/kg/injection, schedule: Q01DX001 (ip), vehicle: saline 108 % of control | dose: 200.0 mg/kg/injection, schedule: Q01DX001 (ip), vehicle: saline 117 % of control | dose: 400.0 mg/kg/injection, schedule: Q01DX001 (ip), vehicle: saline 96 % of control

O=C(NCCCl)NC1c2ccccc2-c2ccccc21
inactive: [1] 105 % of control | [2] 96 % of control and 89 % of control | [3] 92 % of control | [4] 102 % of control | [5] 106 % of control | [6] 98 % of control and 86 % of control

N#[N+]c1nc2ncnc(N)c2[nH]1
inactive: dose: 12.5 mg/kg/injection, schedule: Q01DX Z (ip), vehicle: saline 107 % of control | dose: 25.0 mg/kg/injection, schedule: Q01DX Z (ip), vehicle: saline 114 % of control

C=CCN(CC=C)c1nc(N(CC)CC)nc(N(CC)CC)n1
inactive: dose: 25.6 mg/kg/injection, schedule: Q04DX002 (ip), vehicle: saline with Tween-80 91 % of control | dose: 64.0 mg/kg/injection, schedule: Q04DX002 (ip), vehicle: saline with Tween-80 97 % of control | dose: 160.0 mg/kg/injection, schedule: Q04DX002 (ip), vehicle: saline with Tween-80 102 % of control | dose: 400.0 mg/kg/injection, schedule: Q04DX002 (ip), vehicle: saline with Tween-80 112 % of control

NC(=S)N/N=C(\c1ccc(F)cc1)C1CC1
inactive: dose: 1.0 mg/kg/injection, schedule: Q01DX Z (ip), vehicle: methylcellulose (MC) 92 % of control | dose: 2.0 mg/kg/injection, schedule: Q01DX Z (ip), vehicle: methylcellulose (MC) 101 % of control | dose: 4.0 mg/kg/injection, schedule: Q01DX Z (ip), vehicle: methylcellulose (MC) 97 % of control | dose: 8.0 mg/kg/injection, schedule: Q01DX Z (ip), vehicle: methylcellulose (MC) 93 % of control | dose: 8.0 mg/kg/injection, schedule: Q01DX Z (oral), vehicle: methylcellulose (MC) 100 % of control

O=C(Nc1ccccn1)NC1CCCCC1
inactive: [1] 98 % of control | [3] 105 % of control | [5] 98 % of control

ON=C(CSCc1ccccc1)CSCc1ccccc1
inactive: [7] 101 % of control | [8] 101 % of control | [9] 100 % of control | dose: 400.0 mg/kg/injection, schedule: Q01DX009 (ip), vehicle: saline with Tween-80 101 % of control

O=C1CCC(C(=O)O)N1 (stereo not given)
inactive: [7] 94 % of control | [8] 94 % of control | dose: 100.0 mg/kg/injection, schedule: Q04DX003 (ip), vehicle: saline with Tween-80 97 % of control | [9] 86 % of control | dose: 200.0 mg/kg/injection, schedule: Q04DX003 (ip), vehicle: saline with Tween-80 91 % of control

O=[N+]([O-])c1ccc(OCCCOc2ccccc2)cc1
inactive: [1] 112 % of control | [2] 97 % of control | [3] 101 % of control | [4] 103 % of control | [5] 98 % of control | [6] 100 % of control

CN1Cc2ccccc2/C=C\c2ccccc21
inactive: dose: 100.0 mg/kg/injection, schedule: Q04DX002 (ip), vehicle: Klucel (hydroxypropylcellulose) (HPC) 103 % of control | dose: 200.0 mg/kg/injection, schedule: Q04DX002 (ip), vehicle: Klucel (hydroxypropylcellulose) (HPC) 106 % of control | dose: 400.0 mg/kg/injection, schedule: Q04DX002 (ip), vehicle: Klucel (hydroxypropylcellulose) (HPC) 100 % of control

From PubChem BioAssay AID248 (DTP/NCI, 2004)
